Patent US20260297070A1, “CYCLIC [COMPOUND LEFT OUT] WRN INHIBITORS” (Nimbus Wadjet, Inc., priority 2023, published 2026)

molecular target: T1, human Werner helicase (WRN-BV08, Uniprot Q14191, amino acids 517-1235 with L1074F point mutation) (Homo sapiens, UniProt Q14191, L1074F); experiment: WRN (BV08) ADP-Glo Assay; type: biochemical; details: 0.15 nM WRN, 5 μM ATP, 0.1 nM DNA duplex, 15 min preincubation, 60 min at 25° C., pH 7.5, 1% DMSO; read-out: ADP-Glo_hWRN_IC50
T1 construct: Uniprot Q14191, amino acids 517-1235 with L1074F point mutation; TEV-cleavable 8×His (C, cleaved yes); made in house; host or cells: Sf9 insect cells (baculovirus)
Outline: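 Untagged WRN (Sf9-expressed, TEV-cleaved) at 0.15 nM was preincubated 15 min at 25 °C with compound, then reacted 60 min at 25 °C with 5 μM ATP and 0.1 nM DNA duplex in Bicine pH 7.5, 1 mM MgCl2. ADP-Glo luminescence gave % inhibition; IC50 by four-parameter fit.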

T1 sequence (Q14191 with tags, fused parts or gaps L1074F limits assumed): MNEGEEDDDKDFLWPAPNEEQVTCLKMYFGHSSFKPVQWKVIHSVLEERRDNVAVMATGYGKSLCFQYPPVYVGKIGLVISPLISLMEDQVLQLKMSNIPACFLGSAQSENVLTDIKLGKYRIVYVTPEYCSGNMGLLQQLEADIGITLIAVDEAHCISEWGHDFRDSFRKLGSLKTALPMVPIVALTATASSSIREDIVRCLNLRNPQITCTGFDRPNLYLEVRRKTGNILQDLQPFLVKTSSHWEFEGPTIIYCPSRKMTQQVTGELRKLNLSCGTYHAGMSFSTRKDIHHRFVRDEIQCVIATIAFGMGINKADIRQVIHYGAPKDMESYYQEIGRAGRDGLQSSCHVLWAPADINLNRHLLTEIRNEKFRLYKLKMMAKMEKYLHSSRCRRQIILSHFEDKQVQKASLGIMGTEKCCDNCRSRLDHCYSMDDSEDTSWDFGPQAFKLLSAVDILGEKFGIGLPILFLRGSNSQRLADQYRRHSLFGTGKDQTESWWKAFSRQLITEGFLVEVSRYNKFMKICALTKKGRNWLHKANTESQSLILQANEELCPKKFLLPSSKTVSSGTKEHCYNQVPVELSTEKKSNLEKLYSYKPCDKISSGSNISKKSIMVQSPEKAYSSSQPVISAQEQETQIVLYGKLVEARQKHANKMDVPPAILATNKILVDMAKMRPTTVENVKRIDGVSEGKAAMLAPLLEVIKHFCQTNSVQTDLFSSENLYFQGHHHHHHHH

Compound	IC50
COC(C(=O)N(Cc1nc(C(C)(C)O)cs1)C1C=CS(=O)(=O)C1)c1ccc(-c2ccc(F)c(F)c2)cc1F (single isomer, unassigned) [I-746, (2R*)-N-[(3R**)-1,1-dioxo-2,3-dihydro-1lambda6-thiophen-3-yl]-N-{[4-(2-hydroxypropan-2-yl)-1,3-thiazol-2-yl]methyl}-2-methoxy-2-{3,3′,4′-trifluoro-[1,1′-biphenyl]-4-yl}acetamide]	< 500 nM
COC(C(=O)N(Cc1nc(C(C)(C)O)cs1)C1C=CS(=O)(=O)C1)c1ccc(-c2ccc(F)c(F)c2)cc1F (single isomer, unassigned) [I-747, (2R*)-N-[(3R**)-1,1-dioxo-2,3-dihydro-1lambda6-thiophen-3-yl]-N-{[4-(2-hydroxypropan-2-yl)-1,3-thiazol-2-yl]methyl}-2-methoxy-2-{3,3′,4′-trifluoro-[1,1′-biphenyl]-4-yl}acetamide]	5000 to 10000 nM
COc1cc(CN(C(=O)C(c2ccc(-c3ccc(F)c(F)c3)cc2F)n2nccc2C)[C@@H]2C=CS(=O)(=O)C2)ccn1 (single isomer, unassigned) [I-749, (2R*)-N-[(3R)-1,1-dioxo-2,3-dihydro-1lambda6-thiophen-3-yl]-N-[(2-methoxypyridin-4-yl)methyl]-2-(5-methyl-1H-pyrazol-1-yl)-2-{3,3′,4′-trifluoro-[1,1′-biphenyl]-4-yl}acetamide]	500 to 5000 nM
COc1cc(CN(C(=O)C(c2ccc(-c3ccc(F)c(F)c3)cc2F)n2ccc(C)n2)[C@@H]2C=CS(=O)(=O)C2)ccn1 (single isomer, unassigned) [I-750, (2R*)-N-[(3R)-1,1-dioxo-2,3-dihydro-1lambda6-thiophen-3-yl]-N-[(2-methoxypyridin-4-yl)methyl]-2-(3-methyl-1H-pyrazol-1-yl)-2-{3,3′,4′-trifluoro-[1,1′-biphenyl]-4-yl}acetamide]	< 500 nM
CC(C)(O)c1cc(CN(C(=O)Cn2cc(-c3cc(F)c(F)cc3F)cn2)C2C=CS(=O)(=O)C2)ccn1 (single isomer, unassigned) [I-763]	< 500 nM
COCCOC(C(=O)N(Cc1ccnc(C(C)(C)O)c1)[C@@H]1C=CS(=O)(=O)C1)c1ccc(S(F)(F)(F)(F)F)cc1 (single isomer, unassigned) [I-765]	500 to 5000 nM
CC(C)(O)c1cc(CN(C(=O)Cn2ncc(-c3ccc(F)c(F)c3)cc2=O)C2C=CS(=O)(=O)C2)ccn1 (single isomer, unassigned) [I-767]	< 500 nM
CC(C(=O)N(Cc1ccnc(C(C)(C)O)c1)[C@@H]1C=CS(=O)(=O)C1)n1ccc(-c2ccc(F)c(F)c2)cc1=O (single isomer, unassigned) [I-769]	< 500 nM
CC(C)(O)c1cc(CN(C(=O)Cn2ncc(-c3cc(F)c(F)c(F)c3)c2Cl)C2C=CS(=O)(=O)C2)ccn1 (single isomer, unassigned) [I-773]	< 500 nM
CC(C(=O)N(Cc1ccnc(C(C)(C)O)c1)C1C=CS(=O)(=O)C1)n1cc(-c2ccc(C(F)(F)F)cc2)cn1 (single isomer, unassigned) [I-774, (2R*)-N-[(3R**)-1,1-dioxo-2,3-dihydro-1lambda6-thiophen-3-yl]-N-{[2-(2-hydroxypropan-2-yl)pyridin-4-yl]methyl}-2-{4-[4-(trifluoromethyl)phenyl]-1H-pyrazol-1-yl}propanamide]	10000 to 50000 nM
CC(C(=O)N(Cc1ccnc(C(C)(C)O)c1)C1C=CS(=O)(=O)C1)n1cc(-c2ccc(C(F)(F)F)cc2)cn1 (single isomer, unassigned) [I-775, (2R*)-N-[(3R**)-1,1-dioxo-2,3-dihydro-1lambda6-thiophen-3-yl]-N-{[2-(2-hydroxypropan-2-yl)pyridin-4-yl]methyl}-2-{4-[4-(trifluoromethyl)phenyl]-1H-pyrazol-1-yl}propanamide]	500 to 5000 nM
CC(C(=O)N(Cc1ccnc(C(C)(C)O)c1)C1C=CS(=O)(=O)C1)n1cc(-c2cc(F)c(F)c(F)c2)cn1 (single isomer, unassigned) [I-776, (2R*)-N-[(3R**)-1,1-dioxo-2,3-dihydro-1lambda6-thiophen-3-yl]-N-{[2-(2-hydroxypropan-2-yl)pyridin-4-yl]methyl}-2-[4-(3,4,5-trifluorophenyl)-1H-pyrazol-1-yl]propanamide]	< 500 nM
CC(C(=O)N(Cc1ccnc(C(C)(C)O)c1)C1C=CS(=O)(=O)C1)n1cc(-c2cc(F)c(F)c(F)c2)cn1 (single isomer, unassigned) [I-777, (2R*)-N-[(3R**)-1,1-dioxo-2,3-dihydro-1lambda6-thiophen-3-yl]-N-{[2-(2-hydroxypropan-2-yl)pyridin-4-yl]methyl}-2-[4-(3,4,5-trifluorophenyl)-1H-pyrazol-1-yl]propanamide]	< 500 nM
CC(C)(O)c1cc(CN(C(=O)Cc2cc(-c3ccc(F)c(F)c3)n[nH]2)C2C=CS(=O)(=O)C2)ccn1 (single isomer, unassigned) [I-781]	10000 to 50000 nM
CC(C(=O)N(Cc1ccnc(C(C)(C)O)c1)[C@@H]1C=CS(=O)(=O)C1)n1cc(-c2ccc(C(F)(F)F)cc2)cn1 (single isomer, unassigned) [I-788]	5000 to 10000 nM
CC(C(=O)N(Cc1ccnc(C(C)(C)O)c1)[C@@H]1C=CS(=O)(=O)C1)n1cc(-c2cc(F)c(F)c(F)c2)cn1 (single isomer, unassigned) [I-789]	< 500 nM
CC(C)(O)c1cc(CN(C(=O)C(OCCC(F)(F)F)c2ccc(-c3ccc(F)c(F)c3)cc2F)[C@@H]2C=CS(=O)(=O)C2)ccn1 (single isomer, unassigned) [I-790]	500 to 5000 nM
CC(C)(O)c1cc(CN(C(=O)Cc2ncc(-c3cc(F)c(F)c(F)c3)s2)C2C=CS(=O)(=O)C2)ccn1 (single isomer, unassigned) [I-794]	500 to 5000 nM
CC(C)(O)c1csc(CN(C(=O)Cn2cc(-c3cc(F)c(F)c(F)c3)cn2)C2C=CS(=O)(=O)C2)n1 (single isomer, unassigned) [I-798]	< 500 nM

Now from value to compound:

IC50	Compound
500 to 5000 nM	CC(C)(O)c1csc(CN(C(=O)Cn2cc(-c3cc(F)c(F)c(F)c3)cn2)C2C=CS(=O)(=O)C2)n1 (single isomer, unassigned) [I-799]
< 500 nM	CC(C)(O)c1cc(CN(C(=O)C(c2ccc(-c3ccc(F)c(F)c3)cc2F)n2ccnn2)[C@@H]2C=CS(=O)(=O)C2)ccn1 (single isomer, unassigned) [I-800]
< 500 nM	CC(C)(O)c1cc(CN(C(=O)C(c2ccc(-c3ccc(F)c(F)c3)cc2F)n2ccnn2)C2C=CS(=O)(=O)C2)ccn1 (single isomer, unassigned) [I-801, (2R*)-N-[(3R**)-1,1-dioxo-2,3-dihydro-1lambda6-thiophen-3-yl]-N-{[2-(2-hydroxypropan-2-yl)pyridin-4-yl]methyl}-2-(1H-1,2,3-triazol-1-yl)-2-{3,3′,4′-trifluoro-[1,1′-biphenyl]-4-yl}acetamide]
500 to 5000 nM	CC(C)(O)c1cc(CN(C(=O)C(c2ccc(-c3ccc(F)c(F)c3)cc2F)n2ccnn2)C2C=CS(=O)(=O)C2)ccn1 (single isomer, unassigned) [I-802, (2R*)-N-[(3R**)-1,1-dioxo-2,3-dihydro-1lambda6-thiophen-3-yl]-N-{[2-(2-hydroxypropan-2-yl)pyridin-4-yl]methyl}-2-(1H-1,2,3-triazol-1-yl)-2-{3,3′,4′-trifluoro-[1,1′-biphenyl]-4-yl}acetamide]
> 50000 nM	COc1cc(CN(C(=O)C(O/C=C/S(C)(=O)=O)c2ccc(-c3ccc(F)c(F)c3)cc2F)[C@@H]2C=CS(=O)(=O)C2)ccn1 (single isomer, unassigned) [I-803, (2R*)-N-[(3R)-1,1-dioxo-2,3-dihydro-1lambda6-thiophen-3-yl]-2-{[(1E)-2-methanesulfonylethenyl]oxy}-N-[(2-methoxypyridin-4-yl)methyl]-2-{3,3′,4′-trifluoro-[1,1′-biphenyl]-4-yl}acetamide]
< 500 nM	COc1cc(CN(C(=O)C(O/C=C/S(C)(=O)=O)c2ccc(-c3ccc(F)c(F)c3)cc2F)[C@@H]2C=CS(=O)(=O)C2)ccn1 (single isomer, unassigned) [I-804, (2R*)-N-[(3R)-1,1-dioxo-2,3-dihydro-1lambda6-thiophen-3-yl]-2-{[(1E)-2-methanesulfonylethenyl]oxy}-N-[(2-methoxypyridin-4-yl)methyl]-2-{3,3′,4′-trifluoro-[1,1′-biphenyl]-4-yl}acetamide]
< 500 nM	CC(C)(O)c1cc(CN(C(=O)C(OCC(F)(F)F)c2ccc(-c3ccc(F)c(F)c3)cc2F)[C@@H]2C=CS(=O)(=O)C2)ccn1 (single isomer, unassigned) [I-805]
500 to 5000 nM	CC(C)(O)c1cc(CN(C(=O)C2CCCc3c(-c4cc(F)c(F)c(F)c4)cnn32)[C@@H]2C=CS(=O)(=O)C2)ccn1 (single isomer, unassigned) [I-806]
< 500 nM	CC(C)(O)c1cc(CN(C(=O)C(OCCC(F)F)c2ccc(-c3ccc(F)c(F)c3)cc2F)[C@@H]2C=CS(=O)(=O)C2)ccn1 (single isomer, unassigned) [I-812]
< 500 nM	CC(C)(O)c1cc(CN(C(=O)C(OCC(F)F)c2ccc(-c3ccc(F)c(F)c3)cc2F)[C@@H]2C=CS(=O)(=O)C2)ccn1 (single isomer, unassigned) [I-813]
500 to 5000 nM	CC(C)(O)c1cc(CN(C(=O)C(OCc2ccccc2)c2ccc(-c3ccc(F)c(F)c3)cc2F)[C@@H]2C=CS(=O)(=O)C2)ccn1 (single isomer, unassigned) [I-814]
< 500 nM	CC(C)(O)c1cc(CN(C(=O)C(OCC2CC2)c2ccc(-c3ccc(F)c(F)c3)cc2F)[C@@H]2C=CS(=O)(=O)C2)ccn1 (single isomer, unassigned) [I-815]
500 to 5000 nM	CC(C)(O)c1cc(CN(C(=O)Cn2nc(-c3cc(F)c(F)c(F)c3)cc2N)C2C=CS(=O)(=O)C2)ccn1 (single isomer, unassigned) [I-821]
